Data reported in patent publication US5502066A, “1,2,4-dithiazolium salts as chemotherapeutics” (Bayer Aktiengesellschaft, priority 1993, dated 1996).

Experiments:
in vivo = assay: in vivo; set-up: lethality, Dose 10 mg/kg / lethality, Dose 30 mg/kg / lethality, Dose 60 mg/kg: unit not given here; details: mouse, in vivo, ip; substance 60 mg/kg + D-GalN 60 mg/kg, without LPS; mice; observation 48 hours; read-out: lethality, Substance + D-GalN control
Method: (§1) Substances from the class of dithiazolium salts are described in their protective action by way of example in the following: in vitro in the TNF-α-mediated cytotoxicity test, and in vivo on mice which have been exposed to an endotoxin shock.
(§2) In vivo experiments on inhibition of provoked endotoxin shock were carried out on female inbred mice (F1 B6D2!). Endotoxin/lipopolysaccharide (LPS) from Salmonella abortus equi (0.1 μg/mouse) was administered intraperitoneally or intravenously in association with D-galactosamine hydrochloride (D-GalN; 60 mg/kg of bodyweight) in accordance with reports by Galanos et al. (1979, Proc. Natl. Acad. Sci. USA 76: 5939; V. Lehmann et al. 1987, J. Exp. Med. 165: 657). The substances were administered intraperitoneally one hour before inducement of the endotoxemic shock. The observation period was 48 hours.

[1] = system: endotoxemic shock in D-GalN-sensitized mice; assay: in vivo; set-up: lethality, Dose 10 mg/kg / lethality, Dose 30 mg/kg / lethality, Dose 60 mg/kg: unit not given here; details: LPS + D-GalN control 100, 48 hours; for lethality, Dose 10 mg/kg: 10 mg/kg i.p. one hour before LPS (0.1 μg/mouse) + D-GalN (60 mg/kg); for lethality, Dose 30 mg/kg: 30 mg/kg i.p. one hour before LPS (0.1 μg/mouse) + D-GalN (60 mg/kg); for lethality, Dose 60 mg/kg: 60 mg/kg i.p. one hour before LPS (0.1 μg/mouse) + D-GalN (60 mg/kg)
Method: as §1, §2

Row | Compound | mortality at 48 h (in vivo) [%] | lethality, Dose 10 mg/kg [1] | lethality, Dose 30 mg/kg [1] | lethality, Dose 60 mg/kg [1]
1 | CC1C[N+](=c2nc(N(C)C)ss2)CC(C)O1.[I-] (centres unmarked) [Example 2, 4-(5-dimethylamino-3H-1,2,4-dithiazole-3-ylidene)-2,6-dimethyl-morpholinium iodide] | 0 | 100 | 20 | 0
2 | CN(C)c1nc(=[N+](C)c2ccccc2)ss1.F[B-](F)(F)F [Example 3, N-(5-dimethylamino-3H-1,2,4-dithiazole-3-ylidene)-N-methylanilinium tetrafluoroborate] | 0 | 80 | 40 | 0
3 | CN(C)c1nc(=[N+]2CCOCC2)ss1 [Example 5] | 0 | 40 | 0 | 0
4 | CN1CC[N+](=c2nc(N(C)C)ss2)CC1 [Example 8] | 0 | 40 | 0 | 0
5 | CC(C)[N+](=c1nc(N(C)C)ss1)C(C)C [Example 10] | 0 | 20 | 0 | 0
6 | CN(C)c1nc(=[N+](C)Cc2ccc(Cl)c(Cl)c2)ss1 [Example 43] | 0 | 20 | 20 | 0
7 | CN(C)c1nc(=[N+](C)Cc2ccc(Cl)cc2)ss1 [Example 46] | 0 | 0 | 0 | 0
8 | CN(C)c1nc(=[N+](C)Cc2ccc(Cl)cc2Cl)ss1 [Example 48] | 0 | 0 | 0 | 0
